Source: patent US20090325877A1, “Combination Product of Receptor Tyrosine Kinase Inhibitor and Fatty Acid Synthase Inhibitor for Treating Cancer” (Wyeth, priority 2008, published 2009)
≈ marks a conversion by molar mass, not a printed value. Entries after “also recorded” stand apart in the source; their conditions may differ. Where two headings read alike, the source gives them in different places.

Columns and labels:
EGFR mRNA = EGFR mRNA by RT-PCR and qRT-PCR in A2780 cells; format: cell-based, human
Procedure: RNA was extracted from the cells using TRI-REAGENT™ (Molecular Research Center, Cincinnati, Ohio) and subjected to reverse transcription—polymerase chain reaction (“RT-PCR”) using the TITAN ONE TUBE RT-PCR KIT™ system (Hoffmann-La Roche). […] Conditions for ErbB2 and GAPDH were: 50° C., 30 minutes; 94° C., 2 minutes; 10 cycles (94° C., 30 seconds; 51° C., 30 seconds; 68° C., 45 seconds); 25 cycles (94° C., 30 seconds; 51° C., 30 seconds; 68° C., 45 seconds +5 seconds autoextension) and 68° C., 7 minutes. […] Fragments were electrophoresed and stained with ethidium bromide.
Quantitative RT-PCR (“qRT-PCR”) was performed in the ABI PRISM 7000™ Sequence Detector (Applied Biosystems, Foster City, Calif.) using human EGFR, ErbB2, and FASN TaqMan® Gene Expression Assay systems (Applied Biosystems; Assay IDs: Hs00193306_m1, Hs00170433_m1, Hs00188012_m1) according to the manufacturer's instructions. β-actin and GAPDH (VIC™ and FAM labeled pre-developed TaqMan® Assay reagents, Applied Biosystems) were used as endogenous controls. EGFR, ErbB2, and FASN mRNA expression were calculated as described previously (Grunt, ibid).

[1] = tested on: A2780 ovarian cancer cells; test: Formazan dye (MTT) in-vitro cell growth assay, A2780; format: cell-based; details: for IC50: Homo sapiens, 72 h
Procedure: Effect of FAS and ErbB inhibition on A2780 ovarian cancer cells (OCC). […] Cells were grown for three days in the presence of vehicle (0.1% DMSO) or synthetic inhibitor before cell number was estimated. Data in the charts represent means +/−SD of triplicate measurements.
Cells were plated at 0.5−5×10^3/well in 96-well plates. After adhesion, media ±drugs alone or in combination were added. Cell numbers were estimated after 3-5 days by using a colorimetric formazan dye assay (Biomedica, Vienna, Austria). Results (mean±SD, n=3) were expressed in percent of untreated (solvent) control. Statistical analysis of data from drug combination treatment experiments was performed using one-factorial ANOVA followed by Scheffe-test.
Yellow MTT (3-(4,5-Dimethylthiazol-2-yl)-2,5-diphenyltetrazolium bromide, a tetrazole) is reduced to purple formazan in the mitochondria of living cells (see Mosmann, T., J. Immunol. Methods, 65(1-2): 55-63, 1983).

ErbB2 protein = test: Total and phosphorylated ErbB2 protein by Western blot in A2780 cells; format: cell-based
Procedure: Cells plated in culture media containing 5% fetal calf serum at a density of 2.6×10^5 (SKOV3) or 6×10^5 (A2780) in 60 mm dishes (Corning, Corning, N.Y.) were treated with FASN inhibitor C75, with small-molecule ErbB RTK inhibitors (RTKIs), with the MEK1/2 antagonist U0126 or with the PI3K inhibitor LY294002 for the indicated times and at various concentrations. In some experiments cells were stimulated for 5 or 10 min with 100 ng/ml EGF (Sigma) before lysis in RIPA buffer (Grunt et al., Biochem Biophys Res Commun 329:1253-1259, 2005). Proteins (20 μg/lane) were subjected to SDS-PAGE, blotted onto PVDF membranes and immunostained (see Grunt, ibid) using the following antibodies: 2 μg/ml goat anti-pEGFR(Tyr1173) (sc-12351), 1 μg/ml rabbit anti-ErbB2 (C-18) (sc-284), 1 μg/ml rabbit anti-pErbB2(Tyr1248) (sc-12352-R) (all from Santa Cruz Biotechnology Inc., Santa Cruz, Calif.), rabbit anti-EGFR 1:1,000 (2232), rabbit anti-AKT 1:1,000 (9272), rabbit anti-pAKT(Ser473) 1:1,000 (9271), rabbit anti-pAKT(Thr308) 1:1,000 (9275), rabbit anti-pERK1/2(Thr202/Tyr204) 1:1,000 (9101) (all from Cell Signaling Technology), rabbit anti-ERK1/2 1:3,000 (06-182, Upstate Biotechnology Inc., Lake Placid, N.Y.), 0.5 μg/ml mouse monoclonal anti-FASN (610963, BD Biosciences, San Jose, Calif.), or 0.67 μg/ml goat anti-human actin (1-19, sc-1616, Santa Cruz Biotechnology). Secondary antibodies were peroxidase-tagged donkey-anti-rabbit IgG (V795A, Promega, Madison, Wis.) or donkey-anti-goat IgG (sc-2020, Santa Cruz Biotechnology) at 1:15,000, respectively, or chicken anti-mouse IgG (sc-2954, Santa Cruz Biotechnology) at 1:10,000. Detection was performed by enhanced chemiluminescence.

IC50 (EGFR mRNA; Homo sapiens, 72 h, after 3 days, read-out: IC50, down-regulation of EGFR mRNA): 6.5 µg/mL (≈ 25.6 µM)
IC50 ([1]; A2780 OCC, each individual inhibitor, 50% reduction of cell growth, three days, n = 3-5, read-out: IC50 (μM) Mean +/− SD): 21.9 µM
IC50 ([1]; A2780 ovarian cancer cells, grown three days with inhibitor, read-out: IC50, growth of OCC (MTT assay)): 22 µM
SMILES: C=C1C(=O)OC(CCCCCCCC)C1C(=O)O (centres unmarked) [C75, tetrahydro-3-methylene-2-oxo-5-n-octyl-4-furancarboxylic acid]
EGFR mRNA, effect in words (EGFR mRNA): slowly and concordantly reduces
IT50, EGFR mRNA (EGFR mRNA; at 7 μg/ml): about 29 hours
in vitro growth inhibition (in words) ([1]; A2780, MTT assay, single drug): growth inhibitory activity
phosphorylated ErbB2 (pErbB2), effect in words (ErbB2 protein): downregulates; also recorded: deprivation
total ErbB2 protein, effect in words (ErbB2 protein): downregulates; also recorded: deprivation
